Measured values taken from patent publication US20140178305A1, “IDENTIFICATION AND USE OF ANXIOLYTIC COMPOUNDS” (CALIFORNIA INSTITUTE OF TECHNOLOGY, priority 2012, published 2014).

Assays:
Assay type in all cases: in vivo, mouse
[1] = system: MRGPRD+ neurons (hM3DREADD); experiment: Conditioned place aversion (CPA) assay with CNO; conditions: CNO and DREADD, separate experiments, data not shown
Description: (§1) Because our hypothesis is based on the social reward mediated by social contact in juvenile mice, the mice used were approximately 1-month old. After weaning the mice were maintained in social groups and left undisturbed until the start of the CPP assay. The paradigm was completed in 6 days. On the day before pre-testing the mice were socially isolated in their home cage. On day 1 of the procedure each mouse was placed in the central compartment and allowed to explore the entire apparatus freely for 30 min (pre-test). After the pre-test the initial preference of each mouse for a given side compartment was recorded. […] Conditioning was initiated on day 2 and encompassed four sessions performed on four consecutive days. In the first conditioning session mice were injected i.p. with CNO (5 mg kg) (or saline of an equivalent volume for some control mice) and placed for 1 h (based on the observation that CNO effects peak between 45 and 50 min after administration) in the initially non-preferred (I.N.P.) compartment. On day 3, during the second conditioning session, all mice were injected with saline and confined for 1 hr in the opposite (that is, initially preferred, I.P.) compartment. (The second conditioning session was performed the following day as CNO effects last for 9 hrs.) On day 4 and day 5 the first and second conditioning sessions were repeated, respectively. […]

[2] = system: MRGPRD+ neurons (hM3DREADD); experiment: Conditioned place preference (CPP) assay, biased design, pharmacogenetic activation with CNO; conditions: MrgprD-Cre/hM3DREADD mice conditioned with CNO, n=8
Experimental: (§2) For behavioral experiments, juvenile (1-month-old) mice neonatally injected with Cre-dependent AAV8 viruses expressing hM3DREADD were subjected to a conditioned place preference assay (CPP13) using a biased design, by an investigator blind to genotype. All mice were tested for their initial chamber preference before conditioning, as depicted in FIG. 4C, lower panel).
(§3) The conditioned place preference (CPP) protocol was based on previous studies. For testing a positive valence effect of activation of MrgprB4^+ neurons, a biased compartment assignment procedure in which activation of the neurons is tested for its ability was used to increase the time spent in the initially non-preferred chamber. The CPP apparatus consisted of a rectangular chamber divided into three compartments (300×150×150 mm per compartment), connected via an opening (50×50 mm) in each delimiting wall. The two side (test) compartments were designed to have different visual and tactile cues, by having distinct walls (horizontal or vertical alternating white and black stripes) and distinct floors (different shapes of floor grids with big or small square holes). In addition a 1-inch-diameter polyvinylchloride (PVC) pipe coupler (two schedule 40 wall thickness), either threaded or smooth, was placed in the centre of each side compartment to enrich for tactile cues. The centre compartment was a neutral plastic enclosure (see FIG. 4B). This design was chosen so as to promote a compartment preference assignment for each mouse. A video tracking system (Noldus Ethovision) recorded all animal movements.
as §1, with “respectively. The time between the i.p. injections of CNO or saline and the placement of the mice in the compartment was between 5-10 min, which is compatible with the time that is needed for CNO to start having an effect. On day 6, the mice were tested for their side compartment preference by placing them in the centre compartment and allowing them to explore the entire apparatus freely for 30 min (post test). All sessions were conducted blind to the genotype/injected virus of each mouse. For the conditioned place aversion (CPA assay) the mice remained group-housed until the day before the pre-test. After the pre-test, on the first day of the conditioning session the mice were injected with saline and confined in the I.N.P. compartment. On the second day of conditioning the mice were injected with CNO (except for the saline control mice) and placed in the I.P. compartment. On the third and fourth day of conditioning the first and second sessions of conditioning were repeated, respectively.” for “respectively.”

[3] = system: MRGPRB4+ neurons (hM3DREADD); experiment: as above
Experimental: as §2, §3
as §1, with “respectively. The time between the i.p. injections of CNO or saline and the placement of the mice in the compartment was between 5-10 min, which is compatible with the time that is needed for CNO to start having an effect. On day 6, the mice were tested for their side compartment preference by placing them in the centre compartment and allowing them to explore the entire apparatus freely for 30 min (post test). All sessions were conducted blind to the genotype/injected virus of each mouse. For the conditioned place aversion (CPA assay) the mice remained group-housed until the day before the pre-test. After the pre-test, on the first day of the conditioning session the mice were injected with saline and confined in the I.N.P. compartment. On the second day of conditioning the mice were injected with CNO (except for the saline control mice) and placed in the I.P. compartment. On the third and fourth day of conditioning the first and second sessions of conditioning were repeated, respectively.” for “respectively.”

Q: How did the “conditioned place aversion (CPA)” value [1] turn out when C[N+]1([O-])CCN(C2=Nc3cc(Cl)ccc3Nc3ccccc32)CC1 [CNO, Clozapine-N-oxide] was run?
A: nor (in separate experiments) conditioned place aversion

Q: What about the “conditioned place preference (CPP)” value [2] of the same molecule?
A: neither CPP

Q: What about the “difference of means of difference scores, experimental versus pooled controls” value ([3]; 95% confidence interval 62.9-339.3, Cohen's d=0.872) of the same molecule?
A: 201±70

Q: And the “difference score (time after conditioning minus before conditioning), saline-paired chamber” value ([3]; MrgprB4::hM3DREADD mice, n=15)?
A: -340 ± 74 s

Q: What about the “difference score (time after conditioning minus before conditioning), CNO-paired (I.N.P.) chamber” value ([3]; MrgprB4::hM3DREADD mice, n=15, p<0.01) of the same molecule?
A: 253 ± 66 s

Q: And the “increase in the time spent in the I.N.P. chamber paired with CNO exposure” value ([3]; Mrgprb4-hM3DREADD mice, CNO 5 mg/kg i.p., pre- versus post-training, n=15, P<0.01)?
A: 190±95%

Q: And the “change in the difference score for the I.N.P. chamber” value ([3]; control mice expressing hrGFP in MrgprB4+ (n=9) or MrgprD+ (n=10) neurons, conditioned with CNO)?
A: No significant change

Q: And the “mean difference score of the experimental animals in the I.N.P. chamber” value ([3]; experimental group (FIG. 4e, j))?
A: 253±65.8

Q: And the “increase in preference score for the I.N.P. chamber (time in CNO/I.N.P. chamber divided by total time in the two test chambers)” value ([3]; experimental group, pre vs. post, p<0.001)?
A: 195±86%
